Assays:
[1] = target: T1, 5-hydroxytryptamine receptor 1A (Rattus norvegicus, UniProt P19327); assay: Displacement of [3H]8-OH-DPAT from rat 5HT1A receptor
T1 sequence (P19327 whole entry): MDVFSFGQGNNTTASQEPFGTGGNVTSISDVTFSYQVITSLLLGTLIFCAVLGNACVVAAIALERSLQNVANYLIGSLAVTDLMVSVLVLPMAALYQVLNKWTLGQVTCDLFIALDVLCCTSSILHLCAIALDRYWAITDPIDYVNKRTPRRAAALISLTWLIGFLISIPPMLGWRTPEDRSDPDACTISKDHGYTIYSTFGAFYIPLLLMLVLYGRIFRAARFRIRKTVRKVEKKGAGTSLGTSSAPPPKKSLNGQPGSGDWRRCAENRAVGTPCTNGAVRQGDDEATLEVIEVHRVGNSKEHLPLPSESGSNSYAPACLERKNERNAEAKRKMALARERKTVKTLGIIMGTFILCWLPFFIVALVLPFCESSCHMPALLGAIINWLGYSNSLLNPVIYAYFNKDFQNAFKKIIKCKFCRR

[2] = target: D(2) dopamine receptor (Rattus norvegicus, UniProt P61169); assay: Displacement of [3H]nemonapride from rat dopamine D2 receptor
[3] = target: D(1A) dopamine receptor (Rattus norvegicus, UniProt P18901); assay: Displacement of [3H]SCH-23390 from rat dopamine D1 receptor
[4] = species on record: Rattus norvegicus; assay: Selectivity for rat 5HT1A over rat 5HT2A
[5] = target: 5-hydroxytryptamine receptor 2A (Rattus norvegicus, UniProt P14842); assay: Displacement of [3H]ketanserin from rat 5HT2A receptor
Chain of 5-hydroxytryptamine receptor 2A (P14842 whole entry): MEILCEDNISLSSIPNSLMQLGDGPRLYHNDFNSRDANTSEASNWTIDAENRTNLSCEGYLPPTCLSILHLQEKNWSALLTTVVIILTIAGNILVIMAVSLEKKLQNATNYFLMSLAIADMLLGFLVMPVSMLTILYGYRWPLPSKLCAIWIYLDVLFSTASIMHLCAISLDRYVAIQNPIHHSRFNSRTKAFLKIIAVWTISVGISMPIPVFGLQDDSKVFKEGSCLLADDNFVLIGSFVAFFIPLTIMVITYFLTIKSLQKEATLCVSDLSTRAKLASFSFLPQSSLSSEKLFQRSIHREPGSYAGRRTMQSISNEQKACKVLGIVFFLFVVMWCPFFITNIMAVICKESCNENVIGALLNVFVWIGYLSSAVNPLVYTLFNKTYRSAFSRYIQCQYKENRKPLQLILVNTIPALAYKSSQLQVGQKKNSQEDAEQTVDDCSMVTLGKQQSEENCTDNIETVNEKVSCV

Chain of D(2) dopamine receptor (P61169 whole entry): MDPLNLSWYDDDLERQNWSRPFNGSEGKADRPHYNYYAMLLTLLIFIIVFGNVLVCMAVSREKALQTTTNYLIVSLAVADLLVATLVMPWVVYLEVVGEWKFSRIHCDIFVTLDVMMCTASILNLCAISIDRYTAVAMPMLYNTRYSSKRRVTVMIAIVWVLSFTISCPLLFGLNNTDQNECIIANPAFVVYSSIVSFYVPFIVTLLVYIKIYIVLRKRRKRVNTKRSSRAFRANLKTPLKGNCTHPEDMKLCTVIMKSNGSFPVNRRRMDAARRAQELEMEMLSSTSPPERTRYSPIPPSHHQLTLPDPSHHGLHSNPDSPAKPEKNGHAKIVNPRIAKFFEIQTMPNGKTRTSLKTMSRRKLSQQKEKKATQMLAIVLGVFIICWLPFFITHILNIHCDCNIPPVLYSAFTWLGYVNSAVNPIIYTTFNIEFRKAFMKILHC
Chain of D(1A) dopamine receptor (P18901 whole entry): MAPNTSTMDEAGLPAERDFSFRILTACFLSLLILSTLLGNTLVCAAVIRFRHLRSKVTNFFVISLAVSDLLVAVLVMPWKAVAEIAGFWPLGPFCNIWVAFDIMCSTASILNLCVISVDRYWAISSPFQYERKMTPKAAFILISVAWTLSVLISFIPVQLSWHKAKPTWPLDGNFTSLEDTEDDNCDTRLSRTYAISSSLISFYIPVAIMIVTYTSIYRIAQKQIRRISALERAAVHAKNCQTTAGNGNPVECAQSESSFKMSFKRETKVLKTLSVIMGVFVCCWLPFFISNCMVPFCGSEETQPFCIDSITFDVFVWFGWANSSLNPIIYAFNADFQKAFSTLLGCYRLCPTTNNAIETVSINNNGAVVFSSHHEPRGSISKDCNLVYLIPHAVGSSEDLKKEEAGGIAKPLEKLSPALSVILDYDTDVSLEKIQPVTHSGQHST

With `CCCN1CCc2cccc3c2[C@H]1Cc1ccc(CO)c(O)c1-3` the Ki [1] was 375 nM, the Ki [2] was 6060 nM and the Ki [3] was 1980 nM.

`Cc1ccc2c(c1O)-c1cccc3c1[C@@H](C2)N(C)CC3` gave a Ki [1] of 216 nM, a Ki [2] of 11500 nM and a Ki [3] of 9650 nM.

Molecule `CCCN1CCc2cc(OC)cc3c2[C@H]1Cc1ccc(C)c(O)c1-3` has a Ki [1] of 480 nM, a Ki [2] of 1350 nM and a Ki [3] of 2790 nM.

`CN1CCc2cccc3c2[C@H]1Cc1ccc(CO)c(O)c1-3` gave a Ratio Ki [4] of 57, a Ki [1] of 2.4 nM and a Ki [2] of 7000 nM. For the same molecule, the Ki [3] was 1390 nM and the Ki [5] was 137 nM.

Work on `COc1cc2c3c(c1)-c1c(ccc(C)c1O)C[C@H]3N(C)CC2` yielded a Ratio Ki [4] of 108, a Ki [1] of 21.5 nM and a Ki [2] of 3760 nM. The Ki [3] was 1780 nM and the Ki [5] was 271 nM.

Source: ChEMBL document CHEMBL1149544, “R-(-)-N-alkyl-11-hydroxy-10-hydroxymethyl- and 10-methyl-aporphines as 5-HT1A receptor ligands” (Bioorg Med Chem Lett, 2007)
